Earlier results in patent EP2749553A1, “Process for preparation of enantiomerically pure S-(+)-N, N-dimethyl-a-[2-(naphthalenyloxy)ethyl] benzenemethanamine” (Deva Holding Anonim Sirketi, priority 2012, dated 2014).

Tests used:
[1] = clinical studies; (S)- versus (R)-enantiomer
[2] = free base

in vivo solubility [2]: poor
water solubility [2]: poor
in vivo absorption (free base): low
initial plasma half life (plasma): about 1 h
initial half-life (rapid elimination): 1 to 2 h
Structure (SMILES): CN(C)[C@@H](CCOc1cccc2ccccc12)c1ccccc1 [Dapoxetine, S-(+)-N, N-dimethyl-a-[2-(naphthalenyloxy)ethyl] benzenemethanamine]
times more potent than (R)-enantiomer [1]: 3.5 times
